Like-named read-outs stand apart in the source and are kept apart here.
Columns and labels:
RBL2H3 cells = assay: Degranulation assay: β-hexosaminidase release during immune complex mediated degranulation; type: cell-based, rat
Procedure, shortened: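 Fluorometric β-NAG read-out (Ex 355, Em 460 nm; 30 min, RT) of supernatant after DNP-BSA stimulation (45–60 min) of anti-DNP IgE-sensitized RBL2H3 cells. Compounds (0.5% DMSO) added 15 min before antigen; degranulation expressed as % β-hexosaminidase release or inhibition.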

[1] = target: Syk (356-635 amino acids) catalytic domain (Homo sapiens (Human), UniProt P43405); assay: Inhibition of enzymatic Syk kinase activity (radiometric); type: biochemical
Procedure, shortened: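 Radiometric filter-binding format: 32P transfer from γ-32P-ATP onto pG4T, scintillation-counted after acid washes of P81 paper. Syk kinase domain (356-635), 0.035–7.5 ng per reaction, was exposed to compound for 30 minutes at room temperature before a 10-minute, 30° C. reaction with ATP (100 μM stock). Inhibition derived from counts with versus without compound.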

JAK2 = JAK2 (Homo sapiens (Human), UniProt O60674); assay: Inhibition of enzymatic JAK2 kinase activity (TR-FRET); type: biochemical
Procedure, shortened: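 TR-FRET read-out (Eu antibody donor, Ulight poly Glu-Tyr acceptor, 665/615 nm ratio) after a 60 min RT kinase reaction with ATP, begun following 30 min compound–enzyme preincubation. Stopped by EDTA; inhibition expressed as 100 minus % activity of positive control.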

[2] = Rattus norvegicus, RBL-2H3, 1 μM, Assay Protocol B (96 well format), read-out: Degranulation % inhibition at 1 μM
[3] = Rattus norvegicus, RBL-2H3, Assay Protocol B (96 well format), read-out: Degranulation EC50

Chain of JAK2 (O60674 808-1132): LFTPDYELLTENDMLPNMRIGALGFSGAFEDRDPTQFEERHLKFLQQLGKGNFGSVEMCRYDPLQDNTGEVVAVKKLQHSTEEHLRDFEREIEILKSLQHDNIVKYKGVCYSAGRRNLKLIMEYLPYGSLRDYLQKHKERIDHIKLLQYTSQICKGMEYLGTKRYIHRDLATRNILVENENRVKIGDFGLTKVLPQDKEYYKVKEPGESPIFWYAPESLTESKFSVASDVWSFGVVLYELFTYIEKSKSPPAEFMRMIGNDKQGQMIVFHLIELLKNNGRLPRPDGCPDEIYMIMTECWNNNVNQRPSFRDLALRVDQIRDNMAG

Row | Compound | inhibition at 1 µM (RBL2H3 cells; [2]) [%] | EC50 (RBL2H3 cells; [3]) [nM] | IC50 ([1]; read-out: IC50 Syk) [nM] | IC50 (JAK2; read-out: IC50 JAK) [nM] | inhibition at 1 µM (RBL2H3 cells; Rattus norvegicus, RBL-2H3, read-out: Degranulation % inhibition at 1 μM) [%] | EC50 (RBL2H3 cells; Rattus norvegicus, RBL-2H3, read-out: Degranulation EC50 (nM)) [nM] | IC50 [1] [nM] | IC50 (JAK2) [nM] | Degranulation % inhibition at 1 μM (RBL2H3 cells; 1 μM, Assay Protocol B (96 well format)) [%] | EC50 (RBL2H3 cells; Assay Protocol B (96 well format), read-out: Degranulation EC50) [nM]
1 | O=c1[nH]ncc2nc(N3CCCCCC3)nc(Nc3ccc(CCN4CCC(O)CC4)cc3)c12 [Example 201, 2-(azepan-1-yl)-4-((4-(2-(4-hydroxypiperidin-1-yl)ethyl)phenyl)amino)pyrimido[4,5-d]pyridazin-5(6H)-one] | 88 | 31 | < 10 | < 10 | – | – | – | – | – | –
2 | O=C(O)CCN1CCN(c2ccc(Nc3nc(N4CCCCCC4)nc4cn[nH]c(=O)c34)cc2)CC1 [Example 208, 3-(4-(4-((2-(azepan-1-yl)-5-oxo-5,6-dihydropyrimido[4,5-d]pyridazin-4-yl)amino)phenyl)piperazin-1-yl) propanoic acid] | 21 | 14 | < 10 | < 10 | – | – | – | – | – | –
3 | CC1(O)CCN(CCc2ccc(Nc3nc(N4CCCCCC4)nc4cn[nH]c(=O)c34)cc2)CC1 [Example 210, 2-(azepan-1-yl)-4-((4-(2-(4-hydroxy-4-methylpiperidin-1-yl)ethyl)phenyl)amino) pyrimido[4,5-d]pyridazin-5(6H)-one] | 79 | 22 | < 50 | < 10 | – | – | – | – | – | –
4 | O=c1[nH]ncc2nc(N3CCCCCC3)nc(Nc3ccc(CCN4CCN(CCO)CC4)cc3)c12 [Example 211, 2-(azepan-1-yl)-4-((4-(2-(4-(2-hydroxyethyl)piperazin-1-yl)ethyl)phenyl)amino)pyrimido[4,5-d]pyridazin-5(6H)-one] | 53 | 49 | < 50 | < 50 | – | – | – | – | – | –
5 | N#CCC1CCN(c2nc(Nc3ccc(CCN4CCN(CCO)CC4)cc3)c3c(=O)[nH]ncc3n2)CC1 [Example 212, 2-(1-(4-((4-(2-(4-(2-hydroxyethyl)piperazin-1-yl)ethyl)phenyl)amino)-5-oxo-5,6-dihydropyrimido[4,5-d]pyridazin-2-yl)piperidin-4-yl)acetonitrile] | 71 | 28 | < 50 | < 50 | – | – | – | – | – | –
6 | CC(C)(C(=O)O)N1CCN(c2ccc(Nc3nc(N4CCC(CC#N)CC4)nc4cn[nH]c(=O)c34)cc2)CC1 [Example 213, 2-(4-(4-((2-(4-(cyanomethyl)piperidin-1-yl)-5-oxo-5,6-dihydropyrimido[4,5-d]pyridazin-4-yl)amino)phenyl)piperazin-1-yl)-2-methylpropanoic acid] | 78 | 33 | < 10 | < 50 | – | – | – | – | – | –
7 | CC(C)(O)C(=O)N1CCN(c2ccc(Nc3nc(N4CCCCCC4)nc4cn[nH]c(=O)c34)cc2)CC1 [Example 214, 2-(azepan-1-yl)-4-((4-(4-(2-hydroxy-2-methylpropanoyl)piperazin-1-yl)phenyl)amino)pyrimido[4,5-d]pyridazin-5(6H)-one] | 78 | 19 | < 10 | < 10 | – | – | – | – | – | –
8 | N#CCC(=O)N1CCN(c2ccc(Nc3nc(N4CCCCCC4)nc4cn[nH]c(=O)c34)cc2)CC1 [Example 215, 3-(4-(4-((2-(azepan-1-yl)-5-oxo-5,6-dihydropyrimido[4,5-d]pyridazin-4-yl)amino)phenyl)piperazin-1-yl)-3-oxopropanenitrile] | 96 | 12 | < 10 | < 10 | – | – | – | – | – | –
9 | N#CCC1CCN(c2nc(Nc3ccc(N4CCC(CO)CC4)cc3)c3c(=O)[nH]ncc3n2)CC1 [Example 216, 2-(1-(4-((4-(4-(hydroxymethyl)piperidin-1-yl)phenyl)amino)-5-oxo-5,6-dihydropyrimido[4,5-d]pyridazin-2-yl)piperidin-4-yl)acetonitrile] | 92 | 21 | < 10 | < 10 | – | – | – | – | – | –
10 | N#CCC1CCN(c2nc(Nc3ccc(OCCN4CCC(CO)CC4)cc3)c3c(=O)[nH]ncc3n2)CC1 [Example 218, 2-(1-(4-((4-(2-(4-(hydroxymethyl)piperidin-1-yl)ethoxy)phenyl)amino)-5-oxo-5,6-dihydropyrimido[4,5-d]pyridazin-2-yl)piperidin-4-yl) acetonitrile] | 33 | 123 | < 50 | < 50 | – | – | – | – | – | –
11 | O=C(OCOP(=O)(O)O)C1CC12CCN(c1ccc(Nc3nc(N4CCCCCC4)nc4cn[nH]c(=O)c34)cc1)CC2 (stereo not drawn) [Example 219, (phosphonooxy)methyl 6-(4-((2-(azepan-1-yl)-5-oxo-5,6-dihydropyrimido[4,5-d]pyridazin-4-yl)amino)phenyl)-6-azaspiro[2.5]octane-1-carboxylate] | – | – | – | – | 45 | 96 | < 10 | < 10 | – | –
12 | N#CCC1CCN(c2nc(Nc3ccc(N4CCNCC4)nc3)c3c(=O)[nH]ncc3n2)CC1 [Example 231, 2-(1-(5-oxo-4-((6-(piperazin-1-yl)pyridin-3-yl)amino)-5,6-dihydropyrimido[4,5-d]pyridazin-2-yl)piperidin-4-yl)acetonitrile] | 0 | 367 | < 50 | < 100 | – | – | – | – | – | –
13 | N=Cc1nc(N2CCCCCC2)nc(Nc2ccc(N3CCCC(CC(=O)O)C3)cc2)c1C(N)=O (stereo not drawn) [Example 232] | – | – | < 50 | < 10 | – | – | – | – | 0 | 619
14 | O=C(O)CC1CCCN(c2ccc(Nc3nc(N4CCCCCC4)nc4cn[nH]c(=O)c34)cc2)C1 (stereo not drawn) [Example 233, 2-(1-(4-((2-(azepan-1-yl)-5-oxo-5,6-dihydropyrimido[4,5-d]pyridazin-4-yl)amino)phenyl)piperidin-3-yl)acetic acid] | 20 | 174 | < 10 | < 10 | – | – | – | – | – | –
15 | O=c1[nH]ncc2nc(N3CCCCCC3)nc(Nc3ccc(N4CCC(Cc5nn[nH]n5)CC4)cc3)c12 [Example 244, 4-((4-(4-((2H-tetrazol-5-yl)methyl)piperidin-1-yl)phenyl)amino)-2-(azepan-1-yl)pyrimido[4,5-d]pyridazin-5(6H)-one] | 23 | 306 | < 10 | < 10 | – | – | – | – | – | –
16 | CN1CCN(c2ccc(Nc3nc(N4CCC(CC#N)CC4)nc4cn[nH]c(=O)c34)cc2)CC1 [Example 248, 2-(1-(4-((4-(4-methylpiperazin-1-yl)phenyl)amino)-5-oxo-5,6-dihydropyrimido[4,5-d]pyridazin-2-yl)piperidin-4-yl)acetonitrile] | 99 | 19 | < 10 | < 10 | – | – | – | – | – | –
17 | O=C(O)CN1CCC(Oc2ccc(Nc3nc(N4CCCCCC4)nc4cn[nH]c(=O)c34)cc2)CC1 [Example 254, 2-(4-(4-((2-(azepan-1-yl)-5-oxo-5,6-dihydropyrimido[4,5-d]pyridazin-4-yl)amino)phenoxy)piperidin-1-yl) acetic acid] | 24 | 1200 | < 10 | < 50 | – | – | – | – | – | –
18 | COCCN1CCN(c2ccc(Nc3nc(N4CCC(CC#N)CC4)nc4cn[nH]c(=O)c34)cc2)CC1 [Example 256, 2-(1-(4-((4-(4-(2-methoxyethyl)piperazin-1-yl)phenyl)amino)-5-oxo-5,6-dihydropyrimido[4,5-d]pyridazin-2-yl)piperidin-4-yl)acetonitrile] | 73 | 33 | < 10 | < 50 | – | – | – | – | – | –

Reference: patent US10183944B2 (Asana Biosciences, LLC, priority 2011, dated 2019)
